Activity calls are given as the source filed them. The rule behind the calls is not given here.

Data set [1] concerns the target T1, N-formyl peptide receptor 2 (Homo sapiens) (UniProt P25090).
T1 sequence (whole entry): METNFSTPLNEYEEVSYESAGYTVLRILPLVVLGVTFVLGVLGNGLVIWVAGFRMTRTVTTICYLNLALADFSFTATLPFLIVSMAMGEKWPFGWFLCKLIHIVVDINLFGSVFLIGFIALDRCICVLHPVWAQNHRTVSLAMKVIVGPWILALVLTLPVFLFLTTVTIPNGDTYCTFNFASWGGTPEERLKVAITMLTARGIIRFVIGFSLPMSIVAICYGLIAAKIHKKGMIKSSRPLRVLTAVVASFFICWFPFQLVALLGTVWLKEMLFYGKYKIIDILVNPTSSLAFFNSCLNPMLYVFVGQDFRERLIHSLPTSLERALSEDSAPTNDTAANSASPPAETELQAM
Briefly: Agonist activity at ALX/FPR2 in human THP1 cells harboring NF-kB-Luc assessed as inhibition of LPS-induced NFkB signalling activation by measuring NF-kB activation level at 10^-10 M pretreated for 30 mins followed by LPS stimulation for 24 hrs by luciferase reporter gene assay. It counts as cell-based. Details: scale not given: the % may be the effect or the level left.

Data set [2] addresses T1, N-formyl peptide receptor 2 (Homo sapiens). Briefly: Agonist activity at ALX/FPR2 in human THP1 cells harboring NF-kB-Luc assessed as inhibition of LPS-induced NFkB signalling activation by measuring NF-kB activation level at 10^-7 M pretreated for 30 mins followed by LPS stimulation for 24 hrs by luciferase reporter gene assay. Type of data set: cell-based. Details: scale not given: the % may be the effect or the level left.

Data set [3] shares this target. The data set is described as follows: Agonist activity at ALX/FPR2 in human THP1 cells harboring NF-kB-Luc assessed as inhibition of LPS-induced NFkB signalling activation by measuring IL-1beta secretion at 10^-11 M pretreated for 30 mins followed by LPS stimulation for 24 hrs by electrochemiluminescence assay. Type of data set: cell-based. The arrangement: scale not given: the % may be the effect or the level left.

Data set [4] shares this target. The data set is described as follows: Agonist activity at ALX/FPR2 in human THP1 cells harboring NF-kB-Luc assessed as inhibition of LPS-induced NFkB signalling activation by measuring IL-1beta secretion at 10^-7 M pretreated for 30 mins followed by LPS stimulation for 24 hrs by electrochemiluminescence assay. Type of data set: cell-based. Details: scale not given: the % may be the effect or the level left.

For data set [5] the target is unchanged. Briefly: Agonist activity at ALX/FPR2 in human THP1 cells harboring NF-kB-Luc assessed as inhibition of LPS-induced NFkB signalling activation by measuring IL-6 secretion at 10^-9 M pretreated for 30 mins followed by LPS stimulation for 24 hrs by electrochemiluminescence assay. It counts as cell-based. Details: scale not given: the % may be the effect or the level left.

Data set [6] has the same target. The data set is described as follows: Agonist activity at ALX/FPR2 in human THP1 cells harboring NF-kB-Luc assessed as inhibition of LPS-induced NFkB signalling activation by measuring IL-6 secretion at 10^-7 M pretreated for 30 mins followed by LPS stimulation for 24 hrs by electrochemiluminescence assay. Details: scale not given: the % may be the effect or the level left. Type of data set: cell-based.

Data set [7] has the same target. Briefly: Agonist activity at ALX/FPR2 in human THP1 cells harboring NF-kB-Luc assessed as inhibition of LPS-induced NFkB signalling activation by measuring IFNgamma secretion at 10^-11 M pretreated for 30 mins followed by LPS stimulation for 24 hrs by electrochemiluminescence assay. The arrangement: scale not given: the % may be the effect or the level left. It counts as cell-based.

For data set [8] the target is unchanged. Briefly: Agonist activity at ALX/FPR2 in human THP1 cells harboring NF-kB-Luc assessed as inhibition of LPS-induced NFkB signalling activation by measuring TNFalpha secretion at 10^-9 M pretreated for 30 mins followed by LPS stimulation for 24 hrs by electrochemiluminescence assay. It counts as cell-based. The arrangement: scale not given: the % may be the effect or the level left.

The target in data set [9] is T2, N-formyl peptide receptor 2 (Homo sapiens, UniProt P25090).
T2 sequence (P25090 whole entry): T1 sequence (whole entry)
The data set is described as follows: Agonist activity at ALX/FPR2 in human THP1 cells harboring NF-kB-Luc assessed as inhibition of LPS-induced NFkB signalling activation by measuring reduction in IL-12p70 secretion pretreated for 30 mins followed by LPS stimulation for 24 hrs by electrochemiluminescence assay. Type of data set: cell-based. Particulars: read-out: IC50.

In data set [10] the target is T1, N-formyl peptide receptor 2 (Homo sapiens). Briefly: Agonist activity at ALX/FPR2 (unknown origin) expressed in HEK293 cells co-expressing Galphaq assessed as induction of intracellular calcium accumulation at 0.01 nM to 100 nM by Fluo-4 dye based fluorescence spectrophotometric assay. It counts as functional, cell-based.
Data set [11] relates to HEK293. Briefly: Induction of intracellular calcium accumulation in HEK293 cells at 0.01 nM to 100 nM by Fluo-4 dye based fluorescence spectrophotometric assay. It counts as functional, cell-based. Particulars: Homo sapiens.
The species entered for data set [12] is Homo sapiens. The data set is described as follows: Activation of Luc-fused NFkB (unknown origin) expressed in non-stimulated human THP1 cells assessed as relative luminescence unit at 10^-12 M after 24 hrs by luciferase reporter gene assay (reference value: 100%). Type of data set: cell-based.
The species named for data set [13] is Homo sapiens. The data set is described as follows: Activation of Luc-fused NFkB (unknown origin) expressed in non-stimulated human THP1 cells assessed as relative luminescence unit at 10^-11 M after 24 hrs by luciferase reporter gene assay (reference value: 100%). Type of data set: cell-based.
For data set [14], the species on record is Homo sapiens. The data set is described as follows: Activation of Luc-fused NFkB (unknown origin) expressed in non-stimulated human THP1 cells assessed as relative luminescence unit at 10^-8 M after 24 hrs by luciferase reporter gene assay (reference value: 100%). It counts as cell-based.
Data set [15] is filed under the species Homo sapiens. The data set is described as follows: Activation of Luc-fused NFkB (unknown origin) expressed in non-stimulated human THP1 cells assessed as relative luminescence unit at 10^-7 M after 24 hrs by luciferase reporter gene assay (reference value: 100%). Type of data set: cell-based.
Data set [16] is filed under the species Homo sapiens. Briefly: Activation of Luc-fused NFkB (unknown origin) expressed in non-stimulated human THP1 cells assessed as relative luminescence unit at 10^-6 M after 24 hrs by luciferase reporter gene assay (reference value: 100%). Type of data set: cell-based.
For data set [17], the system named is THP-1. The data set is described as follows: Cytotoxicity against human THP1 cells harboring NFkB-Luc assessed as LDH release at 10'11 M after 24 hrs by spectrophotometric method relative to control. It counts as cell-based. Conditions: thp-1, 24 h.
Data set [18] concerns THP-1. The data set is described as follows: Cytotoxicity against human THP1 cells harboring NFkB-Luc assessed as LDH release at 10'9 M after 24 hrs by spectrophotometric method relative to control. It counts as cell-based. Conditions: thp-1, 24 h.
In data set [19] the test system is THP-1. Briefly: Cytotoxicity against human THP1 cells harboring NFkB-Luc assessed as LDH release at 10'8 M after 24 hrs by spectrophotometric method relative to control. Type of data set: cell-based. Conditions: thp-1, 24 h.
Data set [20] concerns THP-1. Briefly: Cytotoxicity against human THP1 cells harboring NFkB-Luc assessed as LDH release at 10'7 M after 24 hrs by spectrophotometric method relative to control. It counts as cell-based. Particulars: thp-1, 24 h.
Data set [21] deals with THP-1. Briefly: Cytotoxicity against human THP1 cells harboring NFkB-Luc assessed as LDH release at 10'6 M after 24 hrs by spectrophotometric method relative to control. Type of data set: cell-based. Particulars: thp-1, 24 h.
Data set [22] has as its system Mus musculus. Briefly: Anti-inflammatory activity in zymosan-induced C57BL/6J mouse peritonitis model assessed as reduction in total cell count in peritoneal cavity at 43 ng, ip pretreated for 30 mins followed by zymosan treatment and redosing of test compound at 1 hr post zymosan addition and measured at 24 hrs post zymosan addition by flow cytometry relative to basal level (reference value: 14). Type of data set: functional.

Data set [23] has as its system Mus musculus. Briefly: Anti-inflammatory activity in zymosan-induced C57BL/6J mouse peritonitis model assessed as total cell count in peritoneal cavity at 43 ng, ip pretreated for 30 mins followed by zymosan treatment and redosing of test compound at 1 hr post zymosan addition and measured at 24 hrs post zymosan addition by flow cytometry (reference value: 100%). Type of data set: functional.

Data set [24] has as its system Mus musculus. Briefly: Anti-inflammatory activity in zymosan-induced C57BL/6J mouse peritonitis model assessed as PMN leukocytes level in peritoneal cavity at 43 ng, ip pretreated for 30 mins followed by zymosan treatment and redosing of test compound at 1 hr post zymosan addition and measured at 24 hrs post zymosan addition by flow cytometry (reference value: 100%). It counts as functional.

Take `CCCCC[C@H](O)/C=C/C=C\C=C\C=C\[C@@H](O)[C@@H](O)CCCC(=O)O` [LIPOXIN A4]: the Activity in [1] is 85.6%; in [2], 76%; in data set [3], 6.6%; in [4], 5.7%; in data set [5], 1.1%; in data set [6], 1.7%. In addition, the values for the Activity in data set [7] and in [8] were 30.3% and 16.9%, respectively. In addition, the IC50 in data set [9] came out at 11.8 nM. Further, the outcome in data set [10] was Active. The outcome in data set [11] was inactive.
Regarding `CCCCC[C@H](O)c1nc(-c2ccccc2)n(-c2ccccc2)c1/C=C/[C@@H](O)[C@@H](O)CCCC(=O)OC`, the Activity in data set [1] worked out at 79.7%; in data set [2], 82.2%; in data set [12] it was 1.3%; in data set [13], 1.4%; in [14], 1.2%; in data set [15] it was 0.9%. The Activity in data set [16] was found to be 1.3%; in data set [3], 50.3%; in data set [4], 67.4%; in [5], 77.3%; in data set [6], 64.9%; in data set [7], 69.1%. The Activity in [8] was determined as 80.9%. Also, the IC50 in data set [9] is 1 nM. Further, the “fold change (FC)” value is 0.6 in data set [17]; 0.8 in [18]; 1 in data set [19]; 1.4 in data set [20]; 1.6 in data set [21]; 3 in data set [22]. Moreover, the result in [10] was Active. The outcome in data set [11] was inactive. Moreover, the Emax in data set [23] stood at 19.5%; in data set [24] it was 18.2%.
As for `CCCCC[C@@H](O)c1nc(-c2ccccc2)n(-c2ccccc2)c1/C=C/[C@@H](O)[C@@H](O)CCCC(=O)OC`, the Activity is 91.2% in data set [1]; 88.2% in data set [2]; 1.7% in data set [12]; 1.5% in [13]; 1.2% in data set [14]; 0.8% in data set [15]. Moreover, the Activity was 1.2% in data set [16]; 49.6% in [3]; 57.7% in [4]; 64.4% in data set [5]; 83.7% in [6]; 79.1% in data set [7]. The Activity in [8] stood at 68.6%. For the same compound, the IC50 in [9] stood at 10 nM. In addition, the “fold change (FC)” value is given as 0.5 in data set [17]; 0.8 in data set [18]; 0.9 in [19]; 1.1 in [20]; 1.1 in data set [21]; 6 in data set [22]. In addition, the Emax in data set [23] was 42.5%; in [24], 45.5%.

Values taken from ChEMBL document CHEMBL4382216, “Asymmetric synthesis and biological evaluation of imidazole- and oxazole-containing synthetic lipoxin A4 mimetics (sLXms)” (Eur J Med Chem, 2019).
